Among the data in patent US20040147561A1, “Pyrid-2-one derivatives and methods of use” (priority 2002, published 2004) are IC50 and melting point values, retold here.

Data set [1] can be described thus: Cell proliferation assay (BrdU incorporation). The settings on record: Homo sapiens, 48 h incubation, cell line not given, read-out: inhibited proliferation IC50. Format: cell-based. The procedure:
Cell proliferation was measured using a colorimetric immunoassay (B/M Roche #164 7229), based on the measurement of pyrimidine analog BrdU incorporation during DNA synthesis in proliferating cells. Cells, e.g., human PC-3 prostate carconima cells, huFSF normal human foreskin fibroblast cells, HCT 116 human colon carcinoma cells or HT 29 human colon carcinoma cells, were cultured in a 96-well plate for 24 h, until a cell count of 3×10^3 to 6×10^3 cells per well in duplicate wells were achieved, in a well volume of 200 μL. The media was changed and 1 μL of 200× control inhibitors or compounds was added to each well. Cells are incubated for 48 h at 37° C. The cells were labeled with BrdU for 4 h at 37° C. The labeling medium was removed and in one step, the cells were fixed and the DNA was denatured (30 min at RT). Anti-BrdU-POD antibody was added to bind to the BrdU incorporated in newly synthesized cellular DNA (60-90 min at RT). The cells were washed 3× with washing buffer, substrate (100 μL) was added and the cells were incubated for 10 min at RT. The substrate reaction was stopped by adding 25 μL of 1M H2SO4. The amount of BrdU incorporated was quantified by measuring the absorbance at 450 nm using ELISA reader. IC50's were calculated using GraFit (Sigma).
Background: Uptake of a labelled nucleoside into DNA is a usual measure of proliferation.

Turning to `CCOC(=O)c1cc(-c2csc(-c3ccncc3)n2)c(=O)[nH]c1CC` [Example 1, Ethyl 2-ethyl-6-oxo-5-(2-(4-pyridinyl)-1,3-thiazol-4-yl)-1,6-dihydro-3-pyridinecarboxylate], the IC50 in data set [1] is < 1000 nM.
On the same count and under the same terms, under `CCOC(=O)c1cc(-c2csc(CS(=O)(=O)c3cccs3)n2)c(=O)[nH]c1CC` [Example 2, Ethyl 2-ethyl-6-oxo-5-{2-[(thienylsulfonyl)methyl](1,3-thiazol-4-yl)}-1,6-dihydro-3-pyridinecarboxylate] stands < 1000 nM.
On the same count and under the same terms, under `CCOC(=O)c1cc(-c2csc(CS(=O)(=O)c3ccccc3)n2)c(=O)[nH]c1CC` [Example 3, Ethyl 2-ethyl-6-oxo-5-{2-[(phenylsulfonyl)methyl](1,3-thiazol-4-yl)}-1,6-dihydro-3-pyridinecarboxylate] stands < 1000 nM; under `CCOC(=O)c1cc(-c2csc(CS(=O)(=O)c3ccccc3)n2)c(=O)[nH]c1C(C)C` [Example 12, Ethyl 2-isopropyl-6-oxo-5-{2-[(phenylsulfonyl)methyl](1,3-thiazol-4-yl)}-1,6-dihydro-3-pyridinecarboxylate], < 1000 nM.
As to `CCOC(=O)c1cc(-c2csc(CS(=O)(=O)c3cccs3)n2)c(=O)[nH]c1C` [Example 24, Ethyl 2-methyl-6-oxo-5-{2-[(2-thienylsulfonyl)methyl](1,3-thiazol-4-yl)}-1,6-dihydro-3-pyridinecarboxylate], the melting point (as a rule, the temperature, or range, at which the solid turns liquid) was 300 °C (dec.). Further, the IC50 in data set [1] was < 1000 nM.
For `CCOC(=O)c1cc(-c2csc(-c3ccnc(NCc4cccnc4)c3)n2)c(=O)[nH]c1C` [Example 47, Ethyl 2-methyl-6-oxo-5-(2-(2-((3-pyridinylmethyl)amino)-4-pyridinyl)-1,3-thiazol-4-yl)-1,6-dihydro-3-pyridin carboxylate] the same measures were 280 °C (dec.) and < 1000 nM.
In the case of `CCOC(=O)c1cc(-c2csc(-c3ccnc(NCCNC(C)C)c3)n2)c(=O)[nH]c1C` [Example 50, Ethyl 2-methyl-5-(2-(2-((2-((1-methylethyl)amino)ethyl)amino)-4-pyridinyl)-1,3-thiazol-4-yl)-6-oxo-1,6-dihydro-3-pyridinecarboxylate], the melting point was 260 °C (dec.). Also, the IC50 in data set [1] was < 1000 nM.
On to `CCOC(=O)c1cc(-c2csc(CCn3cccc(C(F)(F)F)c3=O)n2)c(=O)[nH]c1C` [Example 51, Ethyl 2-methyl-6-oxo-5-(2-(2-(2-oxo-3-(trifluoromethyl)-1(2H)-pyridinyl)ethyl)-1,3-thiazol-4-yl)-1,6-dihydro-3-pyridinecarboxylate], for which the melting point was 250 °C (dec.).
Still for that read-out and setting: under `CCOC(=O)c1cc(-c2csc(-c3ccnc(NCCN(CC)CC)c3)n2)c(=O)[nH]c1C` [Example 52, Ethyl 5-(2-(2-((2-(diethylamino)ethyl)amino)-4-pyridinyl)-1,3-thiazol-4-yl)-2-methyl-6-oxo-1,6-dihydro-3-pyridinecarboxylate] stands 250 °C (dec.); under `CC(=O)NCCNc1cc(-c2nc(-c3ccc(C)[nH]c3=O)cs2)ccn1` [Example 59, N-(2-{4-[4-(6-Methyl-2-oxo-1,6-dihydropyridin-3-yl)-thiazol-2-yl]-pyridin-2-ylamino}-ethyl)-acetamide], 230 °C (dec.).
Same read-out and setting: under `CCOC(=O)c1cc(-c2csc(-c3ccnc(NCc4ccc(OC)cc4)c3)n2)c(=O)[nH]c1C` [Example 64, Ehtyl 5-{2-[2-(4-Methoxy-benzyamino)-pyridin-4-yl]-thiazol-4-yl}-2-methyl-6-oxo-1,6-dihydro-3-pyridinecarboxylate] stands > 260 °C; under `CCOC(=O)c1cc(-c2csc(-c3ccnc(N)c3)n2)c(=O)[nH]c1C` [Example 65, Ethyl 2-methyl-6-oxo-5-(2-(2-(amino)-4-pyridinyl)-1,3-thiazol-4-yl)-1,6-dihydro-3-pyridinecarboxylate], > 260 °C.
Still for that read-out and setting: under `CCNCCNC(=O)c1cc(-c2csc(-c3ccnc(NCCNCC)c3)n2)c(=O)[nH]c1C` [Example 66] stands > 260 °C; under `COCc1ccc(-c2csc(-c3ccncc3)n2)c(=O)[nH]1` [Example 70, 6-(Methoxymethyl)-3-(2-(4-pyridinyl)-1,3-thiazol-4-yl)-2(1H)-pyridinone], 249 to 254 °C; under `CCOC(=O)c1cc(-c2csc(-c3ccnc(NC)c3)n2)c(=O)[nH]c1C` [Example 83, Ethyl 2-methyl-5-(2-(2-(methylamino)-4-pyridinyl)-1,3-thiazol-4-yl)-6-oxo-1,6-dihydro-3-pyridinecarboxylate], 270 °C (dec.).
Take `Cc1[nH]c(=O)c(-c2csc(-c3ccnc(NCc4ccccn4)c3)n2)cc1C(=O)NCc1ccccn1` [Example 88, 2-Methyl-6-oxo-N-(2-pyridinylmethyl)-5-(2-(2-((2-pyridinylmethyl)amino)-4-pyridinyl)-1,3-thiazol-4-yl)-1,6-dihydro-3-pyridinecarboxamide]: the melting point was > 260 °C.
On the same count and under the same terms, for `CCOC(=O)c1cc(-c2csc(-c3ccnc(NCc4ccccn4)c3)n2)c(=O)[nH]c1C` [Example 90, Ethyl 2-methyl-6-oxo-5-(2-(2-((2-pyridinylmethyl)amino)-4-pyridinyl)-1,3-thiazol-4-yl)-1,6-dihydro-3-pyridinecarboxylate] the value was 270 °C (dec.); for `CCOC(=O)c1cc(-c2csc(-c3ccnc(NCCOc4ccccc4)c3)n2)c(=O)[nH]c1C` [Example 91, Ethyl 2-methyl-6-oxo-5-(2-(2-((2-(phenyloxy)ethyl)amino)-4-pyridinyl)-1,3-thiazol-4-yl)-1,6-dihydro-3-pyridinecarboxylate], 270 °C (dec.).
